# According to PubChem BioAssay (NCI):
# “And” between values parts separate entries of the source, which are not always exact repeats. Equal values may be shown once.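 Method: 48-hour compound exposure of cells in 96-well plates, five concentrations, linear interpolation of endpoints. GI50 is the concentration that inhibits growth by half. TGI: total growth inhibition.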
# Columns and labels:
# Assay in all cases: NCI-60 cell line screen, 48 h
# OVCAR-5 ovarian = tested on: OVCAR-5 ovarian
# T-47D breast = tested on: T-47D breast
# UACC-62 melanoma = tested on: UACC-62 melanoma
# SK-MEL-5 melanoma = tested on: SK-MEL-5 melanoma
# SK-MEL-2 melanoma = tested on: SK-MEL-2 melanoma
# M14 melanoma = tested on: M14 melanoma
# HCT-15 colon = tested on: HCT-15 colon
# 786-0 renal = tested on: 786-0 renal
# TK-10 renal = tested on: TK-10 renal
# SF-539 CNS = tested on: SF-539 CNS
SMILES,GI50 (OVCAR-5 ovarian),TGI (OVCAR-5 ovarian) [µM],GI50 (T-47D breast),TGI (T-47D breast) [µM],GI50 (UACC-62 melanoma),TGI (UACC-62 melanoma) [µM],GI50 (SK-MEL-5 melanoma),TGI (SK-MEL-5 melanoma),GI50 (SK-MEL-2 melanoma),TGI (SK-MEL-2 melanoma) [µM],GI50 (M14 melanoma),TGI (M14 melanoma),GI50 (HCT-15 colon) [µM],TGI (HCT-15 colon) [µM],GI50 (786-0 renal) [µM],TGI (786-0 renal) [µM],GI50 (TK-10 renal),TGI (TK-10 renal) [µM],GI50 (SF-539 CNS),TGI (SF-539 CNS) [µM]
Cc1ccc(-c2nc([P+](c3ccccc3)(c3ccccc3)c3ccccc3)c(N3CCOCC3)o2)cc1,0.846 µM,11.9,0.23 µM,1.83,0.35 µM,1.45,0.314 µM,1.03 µM,0.559 µM,2.76,0.543 µM,10.4 µM,3.09,12.1,2.54,12.7,1.44 µM,9.15,0.787 µM,10.1
COc1cc2c(cc1C)NC(=O)/C2=C\c1ccc(Oc2ccccc2)cc1,18.7 µM,36.5,15.1 µM,48.4,11.9 µM,26,14.5 µM,27.9 µM,17 µM,40.9,15.1 µM,29.2 µM,12.1,24.5,12,24.8,16.8 µM,32.9,17.9 µM,32.7
O=C1c2ccccc2N1C(=O)c1ccccc1[N+](=O)[O-],,> 100,,> 100,,> 100,,> 100 µM,,> 100,,> 100 µM,,> 100,,> 100,,> 100,,> 100
COc1ccc(-c2c(Nc3ccccn3)nc3c(C4=CCCCC4)c(-c4ccccc4)[nH]n3c2=O)cc1,5.52 µM,> 100,2.22 µM,17.3,2.2 µM,16.2,2.67 µM,> 100 µM,2.21 µM,9.54,1.23 µM,> 100 µM,1.64,> 100,2.63,16.3,4.82 µM,19.1,2.81 µM,18.6
CC(=O)O[C@H]1C[C@@H]2[C@@]3(C)CC[C@H]4C[C@@]4(C)[C@@H]3CC[C@@]2(C)C2=CCC3=C(COC3=O)[C@]21C,19.3 µM,39.5,20.7 µM,54.7,16.6 µM,36.4,17.7 µM,34.5 µM,36.3 µM,> 100,22.6 µM,47.3 µM,21,56.1,18.6,37.7,20.4 µM,48.5,15.7 µM,32.5
CNS(=O)(=O)Nc1nccc(Cc2c(C)c3ccc(Oc4ncccn4)cc3oc2=O)c1F,0.0223 µM and 0.0145 µM,> 100,16.1 µM and > 10 µM,> 100,< 0.0105 µM and 0.00277 µM,0.0941,0.153 µM and 0.926 µM,17.4 µM and > 10 µM,< 0.01 µM and 0.00879 µM,> 100,0.0116 µM and 0.0113 µM,1.63 µM and > 10 µM,> 25.7,> 100,> 85.9,> 100,0.184 µM and 0.0841 µM,> 100,61.5 µM and > 10 µM,> 100
Nc1cc(C(F)(F)F)c(-c2nc(N3CCOCC3)nc(N3CCOCC3)n2)cn1,0.192 µM,> 100,0.0328 µM,0.347,0.202 µM,1.38,0.384 µM,2.54 µM,0.618 µM,8.68,0.401 µM,14.1 µM,0.318,> 56.1,0.482,6.33,0.11 µM,1.17,0.539 µM,3.54
O=C1[C@H](Cc2ccc(O)cc2)N2C(=O)CCN(C(=O)NCc3ccccc3)[C@H]2CN1Cc1cccc2ccccc12,1.72 µM,29.1,2.34 µM,15.4,4.45 µM,25,2.28 µM,11.4 µM,2.64 µM,9.18,3.61 µM,20.1 µM,15.5,> 89.8,3.15,> 46.8,3.88 µM,30.7,0.926 µM,7.4
O=C(CC1(O)C(=O)Nc2c(Cl)cc(Cl)cc21)c1cccc([N+](=O)[O-])c1 (stereo not given),,> 100,,> 100,,44.7,,30.9 µM,,> 86.3,,> 58 µM,,> 100,,> 59.9,,> 100,,55.4
